Assay results as given in ChEMBL document CHEMBL1151847, “In vitro skin diffusion study of pure forskolin versus a forskolin-containing Plectranthus barbatus root extract” (J Nat Prod, 2009).

What was measured:
[1] = tested on: Zone of skin; assay: Permeability across guinea pig skin assessed as drug content per gram of wet tissue applied topically after 24 hrs by LC-MS analysis; assay type: ADME, tissue-based, Cavia porcellus; conditions: topical_or_ocular
[2] = tested on: Zone of skin; assay: Permeability across human skin assessed as permeation lag time applied topically after 24 hrs by LC-MS analysis; assay type: ADME, tissue-based
[3] = tested on: Zone of skin; assay: Permeability across guinea pig skin assessed as cumulative drug content applied topically after 24 hrs by LC-MS analysis; assay type: ADME, tissue-based, Cavia porcellus; conditions: topical_or_ocular
[4] = tested on: Zone of skin; assay: Permeability across guinea pig skin assessed as permeation lag time applied topically after 24 hrs by LC-MS analysis; assay type: ADME, tissue-based, Cavia porcellus; conditions: topical_or_ocular
[5] = tested on: Zone of skin; assay: Permeability across human skin assessed as drug content per gram of wet tissue applied topically after 24 hrs by LC-MS analysis; assay type: ADME, tissue-based
[6] = Ratio of permeability flux across guinea pig skin to permeability flux across human skin; assay type: ADME, tissue-based, Zone of skin
[7] = tested on: Zone of skin; assay: Permeability across human skin assessed as cumulative drug content applied topically after 24 hrs by LC-MS analysis; assay type: ADME, tissue-based

Drug uptake [1]: 5.8 µmol | Activity [2]: 1.5 h | Drug uptake [3]: 75.6 nmol | Activity [4]: 2.8 h | Drug uptake [5]: 20 µmol | Ratio [6]: 19 | Drug uptake [7]: 3.8 nmol
Structure (SMILES): C=C[C@@]1(C)CC(=O)[C@]2(O)[C@@]3(C)[C@@H](O)CCC(C)(C)[C@@H]3[C@H](O)[C@H](OC(C)=O)[C@@]2(C)O1 [COLFORSIN]
